The source of these data is patent publication US20080286393A1, “Method for the enrichment of the polyphenolic contents from unripe fruit rinds of Terminalia belerica and uses thereof” (priority 2007, published 2008).

Test [1] is described as follows: Anti-oxidant activity: DPPH scavenging. The note with it: FIG. 5. How it is done:
(§1) The antioxidant activity of the light-colored, enriched/concentrated (85%-100%) polyphenolic extract from the dried, unripe fruit rinds of Terminalia belerica was assayed by diphenylpicrylhydrazyl (DPPH), Oxygen Radical Absorption (or Absorbance) Capacity (ORAC) and the hydroxyl radical Absorption (or Absorbance) capacity (HORAC) studies, as per the validated procedures documented in Cosmetics and toiletries. Cosmeceuticals: Jang D I, Lee B J, Jeon C O, Jo N S, Park J H, Cho S Y, Lee H, Koh J S. 1998, J. Agric. Food Chem. (2001), 49, 4619-4626 and J. Agric. Food. Chem. (2002), 50, 2772-2777.)
For orientation: DPPH is a stable violet radical that fades when it is reduced.

Test [2] can be described thus: Oxygen Radical Absorption (or Absorbance) Capacity (ORAC). The note with it: FIG. 6. As to the method:
as §1, with “[…] The ORAC value of the light-colored, enriched/concentrated (85%-100%) polyphenolic extract from the dried, unripe fruit rinds of Terminalia belerica was 6237±640 μMol trolox equivalents/gram while the ORAC value of Vitamin C was 3400 μMol trolox equivalents/gram and that of grape seed extract was 4528 μMol trolox equivalents/gram.” for “Chem. (2002), 50, 2772-2777.)”

Molecules are shown by their SMILES.

In the case of `Cc1cc(C(C)(C)C)c(O)c(C(C)(C)C)c1` [BHT, Butylated hydroxyl toluene], in test [1], the SC50 scavenging activity is 4.6 µg/mL.

With `O=C1O[C@H]([C@@H](O)CO)C(O)=C1O` [Vitamin C], the ORAC value in test [2] was 3400 μMol trolox equivalents/gram. The same molecule yielded an SC50 scavenging activity in test [1] of 1.9 µg/mL.
